ChEMBL document CHEMBL2311302, “Synthesis and evaluation of 5'-modified thymidines and 5-hydroxymethyl-2'-deoxyuridines as Mycobacterium tuberculosis thymidylate kinase inhibitors” (Bioorg Med Chem, 2013)
Calls of active or inactive are those of the source. No cut-off for these calls is given here.

What was measured:
[1] = molecular target: T1, Thymidylate kinase (Mycobacterium tuberculosis) (UniProt P9WKE1); assay: Inhibition of Mycobacterium tuberculosis thymidine monophosphate kinase at 2.4 mM by enzyme-coupling based spectrophotometric assay
T1 sequence (whole entry): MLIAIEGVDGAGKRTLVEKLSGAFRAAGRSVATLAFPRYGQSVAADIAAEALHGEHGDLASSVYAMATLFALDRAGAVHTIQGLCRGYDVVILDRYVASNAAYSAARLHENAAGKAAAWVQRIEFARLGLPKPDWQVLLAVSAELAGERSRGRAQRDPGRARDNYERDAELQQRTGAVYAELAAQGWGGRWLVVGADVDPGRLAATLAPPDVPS

[2] = molecular target: T2, Thymidylate kinase (Mycobacterium tuberculosis, UniProt P9WKE1); assay: Inhibition of Mycobacterium tuberculosis thymidine monophosphate kinase by enzyme-coupling based spectrophotometric assay
T2 sequence (P9WKE1 whole entry): T1 sequence (whole entry)

[3] = molecular target: T1, Thymidylate kinase (Mycobacterium tuberculosis); assay: Inhibition of Mycobacterium tuberculosis thymidine monophosphate kinase at 2.6 mM by enzyme-coupling based spectrophotometric assay

SMILES | Ki [2] [µM] | other results
O=c1[nH]c(=O)n([C@H]2C[C@H](O)[C@@H](CCc3nnn[nH]3)O2)cc1CO |  | inhibition [1]: inactive
Cc1cn([C@H]2C[C@H](O)[C@@H](CCC#N)O2)c(=O)[nH]c1=O | 48 | 
CNS(=O)(=O)CC[C@H]1O[C@@H](n2cc(C)c(=O)[nH]c2=O)C[C@@H]1O | 240 | 
Cc1cn([C@H]2C[C@H](O)[C@@H](CCS(C)(=O)=O)O2)c(=O)[nH]c1=O | 340 | 
N#CCC[C@H]1O[C@@H](n2cc(CO)c(=O)[nH]c2=O)C[C@@H]1O |  | inhibition [3]: inactive
Cc1cn([C@H]2C[C@H](O)[C@@H](CCc3nnn[nH]3)O2)c(=O)[nH]c1=O | 70 | 
